Test results reported in PubChem BioAssay AID1963980 (Molecular Pharmacology Branch, DTP, NCI, 2024).

System: 475296-252-R-J1-PDC spheroid viability
Assay: Anticancer human tumor 475296-252-R-J1-PDC patient-derived rectal carcinoma cell line growth inhibition [PI3K]
Settings: spheroids with HUVEC and MSC; for IC50: curve of first compound; for viability, T/C: stronger effect = lower value
How it was run: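 Tumor cells grown as multi-cell spheroids with HUVEC endothelial cells and MSC fibroblast-like stroma were treated with targeted agents combined with inavolisib, alpelisib, duvelisib or copanlisib. Doses fell in half-log steps from near clinical Cmax, else from 10 microM. Viability was measured.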

[1] = second compound 0.0316 µM, first compound 0.0316 µM
[2] = second compound 0.0316 µM, first compound 0.1 µM
[3] = second compound 0.1 µM, first compound 0.0316 µM
[4] = second compound 0.1 µM, first compound 0.1 µM
[5] = second compound 0.316 µM, first compound 0.0316 µM
[6] = second compound 0.316 µM, first compound 0.1 µM
[7] = second compound 1 µM, first compound 0.0316 µM
[8] = second compound 1 µM, first compound 0.1 µM
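Also: spheroids exposed to agents for seven days before readout.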

CC(=O)c1c(C)c2cnc(Nc3ccc(N4CCNCC4)cn3)nc2n(C2CCCC2)c1=O + CC(Nc1ccc2c(c1)OCCn1cc(N3C(=O)OCC3C(F)F)nc1-2)C(N)=O
IC50 (second compound 0.00316 µM): > 0.1 µM
IC50 (second compound 0.01 µM): > 0.1 µM
IC50 (second compound 0.0316 µM): > 0.1 µM
IC50 (second compound 0.1 µM): > 0.1 µM
IC50 (second compound 0.316 µM): > 0.1 µM
IC50 (second compound 1 µM): > 0.1 µM
viability, T/C (second compound 0.00316 µM, first compound 0.000316 µM): 93.5%
viability, T/C (second compound 0.00316 µM, first compound 0.001 µM): 86.6%
viability, T/C (second compound 0.00316 µM, first compound 0.00316 µM): 101%
viability, T/C (second compound 0.00316 µM, first compound 0.01 µM): 93.5%
viability, T/C (second compound 0.00316 µM, first compound 0.0316 µM): 119%
viability, T/C (second compound 0.00316 µM, first compound 0.1 µM): 97.2%
viability, T/C (second compound 0.01 µM, first compound 0.000316 µM): 102%
viability, T/C (second compound 0.01 µM, first compound 0.001 µM): 91.3%
viability, T/C (second compound 0.01 µM, first compound 0.00316 µM): 94%
viability, T/C (second compound 0.01 µM, first compound 0.01 µM): 83.2%
viability, T/C (second compound 0.01 µM, first compound 0.0316 µM): 97%
viability, T/C (second compound 0.01 µM, first compound 0.1 µM): 100%
viability, T/C (second compound 0.0316 µM, first compound 0.000316 µM): 97.5%
viability, T/C (second compound 0.0316 µM, first compound 0.001 µM): 101%
viability, T/C (second compound 0.0316 µM, first compound 0.00316 µM): 91.3%
viability, T/C (second compound 0.0316 µM, first compound 0.01 µM): 93.5%
viability, T/C [1]: 104%
viability, T/C [2]: 110%
viability, T/C (second compound 0.1 µM, first compound 0.000316 µM): 90.4%
viability, T/C (second compound 0.1 µM, first compound 0.001 µM): 91.8%
viability, T/C (second compound 0.1 µM, first compound 0.00316 µM): 100%
viability, T/C (second compound 0.1 µM, first compound 0.01 µM): 103%
viability, T/C [3]: 96.1%
viability, T/C [4]: 88.6%
viability, T/C (second compound 0.316 µM, first compound 0.000316 µM): 93.5%
viability, T/C (second compound 0.316 µM, first compound 0.001 µM): 96.2%
viability, T/C (second compound 0.316 µM, first compound 0.00316 µM): 83%
viability, T/C (second compound 0.316 µM, first compound 0.01 µM): 85.4%
viability, T/C [5]: 109%
viability, T/C [6]: 91.7%
viability, T/C (second compound 1 µM, first compound 0.000316 µM): 85.4%
viability, T/C (second compound 1 µM, first compound 0.001 µM): 90.1%
viability, T/C (second compound 1 µM, first compound 0.00316 µM): 87.2%
viability, T/C (second compound 1 µM, first compound 0.01 µM): 91.2%
viability, T/C [7]: 93.2%
viability, T/C [8]: 100%

C[C@@H](NC(=O)c1ncnc(N)c1Cl)c1ncc(C(=O)Nc2cc(C(F)(F)F)c(Cl)cn2)s1 + Cc1nc(NC(=O)N2CCCC2C(N)=O)sc1-c1ccnc(C(C)(C)C(F)(F)F)c1
IC50 (second compound 0.0316 µM): > 10 µM
IC50 (second compound 0.1 µM): > 10 µM
IC50 (second compound 0.316 µM): > 10 µM
IC50 (second compound 1 µM): > 10 µM
IC50 (second compound 3.16 µM): > 10 µM
IC50 (second compound 10 µM): 7.71 µM
viability, T/C [1]: 97.3%
viability, T/C [2]: 82.2%
viability, T/C (second compound 0.0316 µM, first compound 0.316 µM): 98.4%
viability, T/C (second compound 0.0316 µM, first compound 1 µM): 97.1%
viability, T/C (second compound 0.0316 µM, first compound 3.16 µM): 104%
viability, T/C (second compound 0.0316 µM, first compound 10 µM): 84.1%
viability, T/C [3]: 88.8%
viability, T/C [4]: 85.3%
viability, T/C (second compound 0.1 µM, first compound 0.316 µM): 109%
viability, T/C (second compound 0.1 µM, first compound 1 µM): 91.7%
viability, T/C (second compound 0.1 µM, first compound 3.16 µM): 100%
viability, T/C (second compound 0.1 µM, first compound 10 µM): 95.4%
viability, T/C [5]: 87.7%
viability, T/C [6]: 90.5%
viability, T/C (second compound 0.316 µM, first compound 0.316 µM): 97%
viability, T/C (second compound 0.316 µM, first compound 1 µM): 98.9%
viability, T/C (second compound 0.316 µM, first compound 3.16 µM): 95.6%
viability, T/C (second compound 0.316 µM, first compound 10 µM): 79.9%
viability, T/C [7]: 82.6%
viability, T/C [8]: 93.7%
viability, T/C (second compound 1 µM, first compound 0.316 µM): 101%
viability, T/C (second compound 1 µM, first compound 1 µM): 101%
viability, T/C (second compound 1 µM, first compound 3.16 µM): 84.9%
viability, T/C (second compound 1 µM, first compound 10 µM): 63%
viability, T/C (second compound 3.16 µM, first compound 0.0316 µM): 86.2%
viability, T/C (second compound 3.16 µM, first compound 0.1 µM): 79.4%
viability, T/C (second compound 3.16 µM, first compound 0.316 µM): 93.4%
viability, T/C (second compound 3.16 µM, first compound 1 µM): 75.9%
viability, T/C (second compound 3.16 µM, first compound 3.16 µM): 79.6%
viability, T/C (second compound 3.16 µM, first compound 10 µM): 70.5%
viability, T/C (second compound 10 µM, first compound 0.0316 µM): 86.6%
viability, T/C (second compound 10 µM, first compound 0.1 µM): 77%
viability, T/C (second compound 10 µM, first compound 0.316 µM): 79.5%
viability, T/C (second compound 10 µM, first compound 1 µM): 69.1%
viability, T/C (second compound 10 µM, first compound 3.16 µM): 66.8%
viability, T/C (second compound 10 µM, first compound 10 µM): 45%
